Assay results from patent US20110263593A1, “NOVEL IMIDAZO[1,2-a]PYRIMIDINE DERIVATIVES, METHOD FOR THE PREPARATION THEREOF, USE THEREOF AS MEDICAMENTS, PHARMACEUTICAL COMPOSITIONS AND NOVEL USE, IN PARTICULAR AS MET INHIBITORS” (sanofi-aventis, priority 2008, published 2011).
Where a name gives a salt, the structure may show the parent alone.

Experiments:
[1] = test system: HCT116 cells and MKN45 cells; test: Test C: measurement of cell proliferation by 14C-thymidine pulse; type: cell-based; details: 14C-thymidine incorporation, 96 h of treatment; cell line not stated (HCT116 and MKN45 in method)
Protocol: C) Test C: Measurement of cell proliferation by ^14C-thymidine pulse
The cells are seeded into Cytostar 96-well plates in 180 μl for 4 hours at 37° C. and 5% CO2: HCT116 cells at a rate of 2500 cells per well in DMEM medium+10% foetal calf serum+1% L-glutamine and MKN45 cells at a rate of 7500 cells per well in RPMI medium+10% foetal calf serum+1% L-glutamine. After these 4 hours of incubation, the products are added in 10 μl as a 20-fold concentrated solution according to the dilution method mentioned for the ELISA. The products are tested at 10 concentrations in duplicate from 10 000 nM to 0.3 nM with an increment of 3.
After treatment for 72 h, add 10 μl of ^14C-thymidine at 10 μCi/ml to obtain 0.1 μCi per well. The ^14C-thymidine incorporation is measured on a Micro-Beta machine (Perkin-Elmer) after 24 hours of pulse and 96 h of treatment.
All the stages of the assay are automated on BIOMEK 2000 or TECAN stations.

[2] = molecular target: T1, MET (Homo sapiens, UniProt P08581); test: Test B: inhibition of the autophosphorylation of MET, ELISA technique (pppY1230, 1234, 1235) in MKN45 cells; type: cell-based; design: endogenous in cells; host or cells: MKN45 cells; details: 1 h treatment, phosphoMET ELISA
Protocol: B) Test B: Inhibition of the Autophosphorylation of MET; ELISA Technique (pppY1230, 1234, 1235)
a) Cell lysates: Seed MKN45 cells into 96-well plates (Cell coat BD polylysine) at 20 000 cells/well in 200 μl in RPMI medium+10% FCS+1% L-glutamine. Leave to adhere for 24 hours in an incubator.
The cells are treated the day after seeding with the products at 6 concentrations in duplicate for 1 h. At least 3 control wells are treated with the same final amount of DMSO.
Product dilution: Stock at 10 mM in pure DMSO—range from 10 mM to 30 μM with an increment of 3 in pure DMSO—intermediate 1/50 dilutions in culture medium and then removal of 10 μl added directly to the cells (200 μl): final range from 10 000 to 30 nM.
At the end of the incubation, carefully remove the supernatant and rinse with 200 μl of PBS. Next, place 100 μl of lysis buffer directly in the wells on ice and incubate at 4° C. for 30 minutes. Lysis buffer: 10 mM Tris HCl, pH 7.4, 100 mM NaCl, 1 mM EDTA, 1 mM EGTA, 1% Triton X-100, 10% glycerol, 0.1% SDS, 0.5% deoxycholate, 20 mM NaF, 2 mM Na3VO4, 1 mM PMSF and cocktail of antiproteases.
The 100 μl of lysates are transferred into a V-bottomed polypropylene plate and the ELISA is performed immediately, or the plate is frozen at −80° C.
b) PhosphoMET ELISA BioSource Kit KH00281
Into each well of the kit plate, add 70 μl of kit dilution buffer+30 μl of cell lysate or 30 μl of lysis buffer for the blanks. Incubate for 2 h with gentle agitation at ambient temperature.
Rinse the wells 4 times with 400 μl of kit washing buffer. Incubate with 100 μl of anti-phospho MET antibody for 1 hour at ambient temperature.
Rinse the wells 4 times with 400 μl of kit washing buffer. Incubate with 100 μl of anti-rabbit HRP antibody for 30 minutes at ambient temperature (except for the wells of chromogen alone).
Rinse the wells 4 times with 400 μl of kit washing buffer. Introduce 100 μl of chromogen and incubate for 30 minutes in the dark at ambient temperature.
Stop the reaction with 100 μl of stop solution. Read without delay at […], 0.1 second on Wallac Victor plate reader.
Target sequence in this assay (P08581 25-1390): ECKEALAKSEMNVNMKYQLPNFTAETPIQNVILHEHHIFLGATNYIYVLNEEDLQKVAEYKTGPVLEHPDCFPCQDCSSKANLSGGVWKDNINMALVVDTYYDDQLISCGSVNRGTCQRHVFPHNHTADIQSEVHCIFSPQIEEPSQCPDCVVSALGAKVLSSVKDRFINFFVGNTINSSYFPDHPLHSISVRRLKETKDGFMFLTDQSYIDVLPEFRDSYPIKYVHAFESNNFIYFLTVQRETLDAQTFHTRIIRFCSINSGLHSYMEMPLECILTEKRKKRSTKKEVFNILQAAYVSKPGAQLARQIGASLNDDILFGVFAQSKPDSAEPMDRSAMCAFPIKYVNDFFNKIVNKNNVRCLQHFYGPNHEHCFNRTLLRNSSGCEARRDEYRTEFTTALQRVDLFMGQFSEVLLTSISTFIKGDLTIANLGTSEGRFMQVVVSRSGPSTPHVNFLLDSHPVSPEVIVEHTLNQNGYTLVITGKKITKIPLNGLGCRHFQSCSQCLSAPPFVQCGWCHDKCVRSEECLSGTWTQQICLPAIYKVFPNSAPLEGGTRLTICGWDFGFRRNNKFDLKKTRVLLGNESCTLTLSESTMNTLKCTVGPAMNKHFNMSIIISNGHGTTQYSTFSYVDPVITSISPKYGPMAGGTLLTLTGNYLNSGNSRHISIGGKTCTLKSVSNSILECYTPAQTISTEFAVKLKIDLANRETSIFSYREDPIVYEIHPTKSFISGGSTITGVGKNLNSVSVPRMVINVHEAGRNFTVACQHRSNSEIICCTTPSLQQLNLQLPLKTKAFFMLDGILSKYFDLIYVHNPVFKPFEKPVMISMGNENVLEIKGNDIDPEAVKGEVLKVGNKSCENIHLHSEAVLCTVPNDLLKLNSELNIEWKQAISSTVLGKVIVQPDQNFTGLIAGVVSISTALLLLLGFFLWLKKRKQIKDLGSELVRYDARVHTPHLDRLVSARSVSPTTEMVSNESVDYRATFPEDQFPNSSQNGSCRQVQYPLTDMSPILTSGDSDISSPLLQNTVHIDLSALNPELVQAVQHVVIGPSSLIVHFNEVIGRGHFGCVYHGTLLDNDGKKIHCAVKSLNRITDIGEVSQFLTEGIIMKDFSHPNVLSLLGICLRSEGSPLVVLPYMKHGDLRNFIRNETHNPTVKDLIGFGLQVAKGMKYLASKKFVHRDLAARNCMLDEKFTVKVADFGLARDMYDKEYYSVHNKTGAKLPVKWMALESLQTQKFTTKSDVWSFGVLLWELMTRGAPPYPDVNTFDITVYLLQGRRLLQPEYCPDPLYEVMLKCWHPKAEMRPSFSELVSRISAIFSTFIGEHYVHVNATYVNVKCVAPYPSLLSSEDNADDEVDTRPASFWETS

[3] = molecular target: T1, MET; test: Test A: HTRF MET assay in 96-well format; type: biochemical; design: The His-Tev-MET (956-1390) recombinant DNA in pFastBac (Invitrogen) is transfected into insect cells; His (N, cleaved yes); Tev cleavage site (N, cleaved yes); made in house; host or cells: SF21 insect cells (baculovirus, pFastBac); details: 5 nM MET, 10 μM ATP
Protocol: I) Expression and Purification of MET, Cytoplasmic Domain
The His-Tev-MET (956-1390) recombinant DNA in pFastBac (Invitrogen) is transfected into insect cells and, after several viral amplification stages, the final baculovirus stock is tested for the expression of the protein of interest.
After infection for 72 h at 27° C. with the recombinant virus, the SF21 cell cultures are harvested by centrifugation and the cell pellets are stored at −80° C.
The cell pellets are resuspended in lysis buffer (buffer A [50 mM HEPES, pH 7.5, 250 mM NaCl, 10% glycerol, 1 mM TECP]; + cocktail of protease inhibitors, Roche Diagnostics, without EDTA, ref. 1873580), stirred at 4° C. until the mixture is homogeneous and then lysed mechanically using a “Dounce” type apparatus.
After centrifugation, the lysis supernatant is incubated for 2 h at 4° C. with nickel chelate resin (His-Trap 6 Fast Flow™, GE HealthCare). After washing with 20 volumes of buffer A, the suspension is packed into a column, and the proteins are eluted with a gradient of buffer B (buffer A+290 mM imidazole).
The fractions comprising the protein of interest for the purpose of electrophoretic analysis (SDS PAGE) are combined, concentrated by ultrafiltration (10 kDa cut-off) and injected onto an exclusion chromatography column (Superdex™ 200, GE HealthCare) equilibrated in buffer A.
After enzymatic cleavage of the histidine tag, the protein is reinjected onto a new IMAC nickel chelate chromatography column (His-Trap 6 Fast Flow™, GE HealthCare) equilibrated in buffer A. The fractions eluted with a gradient of buffer B and comprising the protein of interest after electrophoresis (SDS PAGE) are finally combined and conserved at −80° C.
For the production of autophosphorylated protein, the previous fractions are incubated for 1 h at ambient temperature after the addition of 2 mM ATP, 2 mM MgCl2, and 4 mM Na3VO4. After the reaction has been stopped with 5 mM of EDTA, the reaction mixture is injected onto a HiPrep desalifying column (GE HealthCare) preequilibrated in buffer A+4 mM Na3VO4, and the fractions comprising the protein of interest (SDS PAGE analysis) are combined and stored at −80° C. The degree of phosphorylation is verified by mass spectrometry (LC-MS) and by peptide mapping.
A) Test A: HTRF MET Assay in 96-Well Format
MET at a final concentration of 5 nM is incubated in a final volume of 50 μl of enzymatic reaction in the presence of the test molecule (for a final concentration range of from 0.17 nM to 10 μM, 3% DMSO final concentration) in 10 mM MOPS buffer, pH 7.4, 1 mM DTT, 0.01% Tween 20. The reaction is initiated with the substrate solution to obtain final concentrations of 1 μg/ml poly-(GAT), 10 μM ATP and 5 mM MgCl2. After incubation for 10 min at ambient temperature, the reaction is stopped with a 30 μl mix so as to obtain a final solution of 50 mM Hepes, pH 7.5, 500 mM potassium fluoride, 0.1% BSA and 133 mM EDTA in the presence of 80 ng of streptavidin 61SAXLB Cis-Bio Int. and 18 ng of anti-phosphotyrosine Mab PT66-Europium Cryptate per well. After incubation for 2 hours at ambient temperature, the reading is taken at 2 wavelengths, 620 nm and 665 nm, on a reader for the TRACE/HTRF technique and the % inhibition is calculated from the 665/620 ratios.
Target sequence in this assay (P08581 956-1390): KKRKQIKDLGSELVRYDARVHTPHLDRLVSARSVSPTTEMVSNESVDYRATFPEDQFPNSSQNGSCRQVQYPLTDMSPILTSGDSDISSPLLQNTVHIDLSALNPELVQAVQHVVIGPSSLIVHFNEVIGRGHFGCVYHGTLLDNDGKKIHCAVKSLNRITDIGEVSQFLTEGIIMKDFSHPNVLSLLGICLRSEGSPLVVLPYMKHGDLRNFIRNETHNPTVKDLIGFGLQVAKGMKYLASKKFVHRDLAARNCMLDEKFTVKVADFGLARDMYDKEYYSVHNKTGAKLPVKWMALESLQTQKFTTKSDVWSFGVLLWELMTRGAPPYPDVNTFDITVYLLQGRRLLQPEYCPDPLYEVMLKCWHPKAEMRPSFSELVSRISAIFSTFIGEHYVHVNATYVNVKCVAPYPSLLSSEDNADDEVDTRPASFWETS

| SMILES | IC50 [1] [nM] | melting point [°C] | IC50 [2] [nM] | IC50 [3] [nM] |
| --- | --- | --- | --- | --- |
| O=C(NCCN1CCOCC1)Nc1nc2ccc(Sc3cnc4ncccn34)cc2s1 [Example 4, 1-[6-(imidazo[1,2-a]pyrimidin-3-ylsulphanyl)-1,3-benzothiazol-2-yl]-3-[2-(morpholin-4-yl)ethyl]urea] | < 1000 | > 260 | < 100 | < 100 |
| O=C(Nc1nc2ccc(Sc3cnc4ncccn34)cc2s1)c1ccccc1 [Example 9, N-[6-(imidazo[1,2-a]pyrimidin-3-ylsulphanyl)-1,3-benzothiazol-2-yl]benzamide] | < 1000 | > 260 |  | < 500 |
| CN1CCN(CC(=O)Nc2nc3ccc(Sc4cnc5ncccn45)cc3s2)CC1 [Example 10, N-[6-(imidazo[1,2-a]pyrimidin-3-ylsulphanyl)-1,3-benzothiazol-2-yl]-2-(4-methylpiperazin-1-yl)acetamide] | < 1000 |  | < 100 | < 100 |
| CN1CCN(CC(=O)Nc2nc3ccc(Sc4cnc5ncccn45)cc3s2)CC1=O [Example 21, N-[6-(imidazo[1,2-a]pyrimidin-3-ylsulphanyl)-1,3-benzothiazol-2-yl]-2-(4-methyl-3-oxopiperazin-1-yl)acetamide] | < 1000 |  | < 100 | < 100 |
| O=C(Nc1nc2ccc(Sc3cnc4ncc(OC5CCCCC5)cn34)cc2s1)C1CC1 [Example 24, N-(6-{[6-(cyclohexyloxy)imidazo[1,2-a]pyrimidin-3-yl]sulphanyl}-1,3-benzothiazol-2-yl)cyclopropanecarboxamide] | < 1000 |  | < 100 | < 100 |
| Nc1nc2ccc(Sc3cnc4ncc(NC5CCCCC5)cn34)cc2s1 [Example 25, 3-[(2-amino-1,3-benzothiazol-6-yl)sulphanyl]-N-cyclohexylimidazo[1,2-a]pyrimidin-6-amine] | < 1000 |  | < 100 | < 100 |

Second part, the compound after the results:

| IC50 [1] [nM] | melting point [°C] | IC50 [2] [nM] | IC50 [3] [nM] | SMILES |
| --- | --- | --- | --- | --- |
| < 1000 | > 260 | < 500 | < 100 | Nc1nc2ccc(Sc3cnc4ncccn34)cc2s1 [Example 1, 6-(imidazo[1,2-a]pyrimidin-3-ylsulphanyl)-1,3-benzothiazol-2-amine] |
| < 1000 | 258 | < 100 | < 100 | O=C(Nc1nc2ccc(Sc3cnc4ncccn34)cc2s1)C1CC1 [Example 2, N-[6-(imidazo[1,2-a]pyrimidin-3-ylsulphanyl)-1,3-benzothiazol-2-yl]cyclopropanecarboxamide] |
| < 1000 | > 260 | < 100 | < 100 | CC(=O)Nc1nc2ccc(Sc3cnc4ncccn34)cc2s1 [Example 3, N-[6-(imidazo[1,2-a]pyrimidin-3-ylsulphanyl)-1,3-benzothiazol-2-yl]acetamide] |
| < 1000 | > 260 | < 100 | < 100 | O=C(NCCN1CCCC1)Nc1nc2ccc(Sc3cnc4ncccn34)cc2s1 [Example 5, 1-[6-(imidazo[1,2-a]pyrimidin-3-ylsulphanyl)-1,3-benzothiazol-2-yl]-3-[2-(pyrrolidin-1-yl)ethyl]urea] |
| < 1000 | > 260 |  | < 500 | O=C(Nc1nc2ccc([S+]([O-])c3cnc4ncccn34)cc2s1)C1CC1 (stereo not drawn) [Example 6, N-[6-(imidazo[1,2-a]pyrimidin-3-ylsulphinyl)-1,3-benzothiazol-2-yl]cyclopropanecarboxamide] |
| < 1000 |  |  | < 500 | NCC(=O)Nc1nc2ccc(Sc3cnc4ncccn34)cc2s1 [Example 12, N-[6-(imidazo[1,2-a]pyrimidin-3-ylsulphanyl)-1,3-benzothiazol-2-yl]glycinamide dihydrochloride] |
| < 1000 |  | < 100 | < 100 | O=C(Nc1nc2ccc(Sc3cnc4ncccn34)cc2s1)C1CC1CN1CCOCC1 (stereo not drawn) [Example 13, (trans-A)-N-[6-(imidazo[1,2-a]pyrimidin-3-ylsulphanyl)-1,3-benzothiazol-2-yl]-2-(morpholin-4-ylmethyl)cyclopropanecarboxamide] |
| < 1000 |  |  | < 100 | O=C(Nc1nc2ccc(Sc3cnc4ncccn34)cc2s1)C1CC1CN1CCOCC1 (stereo not drawn) [Example 14, (trans-B)-N-[6-(imidazo[1,2-a]pyrimidin-3-ylsulphanyl)-1,3-benzothiazol-2-yl]-2-(morpholin-4-ylmethyl)cyclopropanecarboxamide] |
| < 1000 |  | < 100 | < 100 | O=C(Nc1nc2ccc(Sc3cnc4ncc(-c5cccc(F)c5)cn34)cc2s1)C1CC1 [Example 23, N-(6-{[6-(3-fluorophenyl)imidazo[1,2-a]pyrimidin-3-yl]sulphanyl}-1,3-benzothiazol-2-yl)cyclopropanecarboxamide] |
